# According to patent US20070172469A1, “Methods For Inhibiting Viral Replication In Vivo” (priority 2002, published 2007):
# pIC50: −log10 of the molar value. Read-outs that look alike come from different tables or passages of the source.
# Columns and labels:
# [1] = Toxicity in AVA5 cells, neutral red dye uptake; details: human, AVA5 cells (HCV RNA replicating cell line derived from Huh7)
# AVA5 cells = experiment: Actin mRNA level in AVA5 cells (nonspecific inhibitory activity); assay type: cell-based, human; details: 3 days, ADI-PEG20 0.01 IU/ml, alpha interferon 10 IU/ml, ribavirin 100 μM
# HCV [2] = experiment: In vitro HCV RNA replication assay in AVA5 cells (dot blot); assay type: cell-based, Hepatitis C virus (HCV)
# [3] = cited from earlier work
# HCV [4] = details: cited from earlier work
# [5] = humans chronically infected with HCV
# [6] = HCV mRNA levels, AVA5 cells, 3 days
Compound,CC50 at 3 days [1],mRNA % inhibition of actin (AVA5 cells),"pIC50 (HCV [2]; Hepatitis C virus, 72 h, HCV mRNA levels, AVA5 cells, 3 days, read-out: IC50)","IC90 (HCV [2]; Hepatitis C virus, 72 h, HCV mRNA levels, AVA5 cells, 3 days, read-out: IC90)","inhibition at 100 µM (HCV [2]; Hepatitis C virus, Ava5, 72 h)","patients with influenza-like illness with fever, chills, myalgias and malaise ([3]; PEG and non PEG formulated versions)","patients with neuropsychiatric complications ([3]; depression, irritability, anxiety)","alopecia ([3]; human, in vivo)","bone marrow suppression with granulocytopenia, anemia or thrombocytopenia ([3]; human, in vivo)",patients in whom effective (HCV [4]; [5]),treatment required to achieve a 50% reduction in HCV titers (HCV [4]; [5]),patients who initially responded to the therapy (HCV [4]; various clinical trials),responders who relapsed after the treatment ended (HCV [4]; various clinical trials),"% inhibition of HCV (HCV [2]; AVA5 cells, 3 days, ADI-PEG20 0.01 IU/ml, alpha interferon 10 IU/ml, ribavirin 100 μM)",IC50 (HCV [2]; [6]),IC90 (HCV [2]; [6]),"SI (HCV [2]; selectivity index CC50/EC50, AVA5 cells)"
"NC(=O)c1ncn([C@@H]2O[C@H](CO)[C@@H](O)[C@H]2O)n1 [ribavirin, 1-β-D-ribo-furanosyl-1,2,4-trizole-3-carboxamide]",74 µM,98%,< 5.00,> 10 µM,25%,,,,,,,,,,,,
alpha interferon,,11%,,,,up to 82%,~20%,~5%,~5%,~50%,3-6 months,approximately 40%,70%,92%,2.1 IU/ml,9.0 IU/ml,>4762
